According to patent US20250115598A1 (Anaxis Pharma Pty Ltd, priority 2021, published 2025):

Experiments:
[1] = tested on: U937 human histiocytic leukemia cell line; experiment: Cellular assay: inhibition of TSQ induced necroptosis, CellTitre-Glo viability; conditions: Homo sapiens, U-937; U937 cells, 48 hours, TSQ cocktail, Table 26; read-out: Inhibition of TSQ-induced necroptosis (IC50 cell-based assay)
Description: Cellular Assay: Screening Compounds for Inhibition of TSQ Induced Necroptosis, 384 Well Plate Format.
• Cell Line ID: U937 human histiocytic leukemia cell line. • Cell Concentration (cells/well): Final cell density is 20000 cells per well. • Cell growth medium: HT-RPMI medium+7.4% Fetal Bovine Serum (FBS). Cells are cultured in Corning 150 cm^2 tissue culture flasks with vented caps at 37° C./5% CO2. • Incubation: Plates were incubated at 37° C./5% CO2 in a humidified incubator for 48 hours following addition of compounds and death stimuli (TSQ cocktail). • Compound concentration: 36 μM starting concentration, 1:3 dilution, 10 point • DMSO final concentration (% v/v): 0.3%. Compounds in TSQ Cocktail (T: TNF; S: Smac Mimetic; Q: Q-VD-OPh) and their Final Concentrations: • hTNF-Fc (100 ng/ml)—produced by standard procedures as shown in Bossen et al., J. Biol. Chem., 2006, 281(20), 13964-13971. • Compound A (500 nM)—Smac mimetic, Tetralogic and SYNthesis med chem • Q-VD-OPh (10 μM)—MP Biomedicals
The cellular assay was carried out according to the following steps: • 1. Each well was prepared by sequential addition of: • a. DMSO (control; columns 1-2 and 23-24) or compound in DMSO—addition was performed using acoustic transfer of nL volumes of stock compound to give final test concentrations of 36, 12, 4, 1.3, 0.44, 0.148, 0.049, 0.016, 0.005 and 0.002 μM. All wells were backfilled with DMSO to a final total volume in the well of 100 nL. • b. Following compound/DMSO addition in step (a), 40 μL of cell suspension (5×10^5 cells/mL) was added to provide a final cell concentration of 20,000 cells per well, and • c. Following cell addition in step (b), 10 μL of 5×TSQ cocktail (except to positive controls; columns 1 and 23) was added to each well. • 2. After 48 hours, plate was removed from the 37° C. incubator and equilibrated to room temperature for 45 minutes. • 3.15 μL of room temperature CellTitre-Glo2™ (Promega™) was added to each well. • 4. Shook plates for 2 minutes (˜600 rpm) and incubated at room temperature for 15 minutes to allow signal to stabilise. • 5. Read luminescence readout on a plate reader.
Percent viability was calculated for each compound according to equation (2):
• Assay involving the TSQ cocktail (T: TNF; S: Smac mimetic; Q: Q-VD-OPh): TSQ treatment ensures that cells specifically undergo necroptotic cell death. TNF activates the TNF receptor, Smac mimetic directs the signal away from proinflammatory signaling and toward the RIPK1/RIPK3-mediated cell death pathways, and Q-VD-OPh ensures that the apoptotic response is blocked leaving only the programmed necrosis response. The compounds' activity (solution in DMSO) tested in this TSQ-induced assay was evaluated by determining the number of viable cells in culture by measuring the amount of ATP present as measured by CelltiterGlo. • Counter screen: In parallel, all compounds were tested for their ability to affect cell viability. The same U937 cells were treated with compound in DMSO without the TSQ cocktail. This counter screen enabled evaluation of off-target effects. In this case, cell viability was measured by CelltiterGlo.

[2] = target: endogenous MLKL in U937 (Homo sapiens (Human), UniProt Q8NB16); experiment: Degradation assay: endogenous MLKL in U937 (western blot); conditions: U937, 24 h incubation, read-out: Degradation of endogenous MLKL in U937 (DC50 cell-based assay)
Chain of endogenous MLKL in U937 (Q8NB16 whole entry): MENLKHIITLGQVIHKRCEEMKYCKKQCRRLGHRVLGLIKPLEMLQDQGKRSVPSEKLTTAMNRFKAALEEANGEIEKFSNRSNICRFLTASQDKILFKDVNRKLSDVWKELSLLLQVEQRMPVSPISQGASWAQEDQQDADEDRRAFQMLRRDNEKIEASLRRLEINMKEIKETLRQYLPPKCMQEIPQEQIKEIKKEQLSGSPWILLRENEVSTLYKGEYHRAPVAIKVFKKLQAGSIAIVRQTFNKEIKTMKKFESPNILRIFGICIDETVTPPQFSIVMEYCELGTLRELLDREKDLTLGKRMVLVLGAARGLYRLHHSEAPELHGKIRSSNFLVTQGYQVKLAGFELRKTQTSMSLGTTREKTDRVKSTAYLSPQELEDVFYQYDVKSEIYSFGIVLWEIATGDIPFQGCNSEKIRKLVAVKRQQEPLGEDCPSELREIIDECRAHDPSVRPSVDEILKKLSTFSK
Summary of the method: (§1)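 Western blot band intensity of MLKL, adjusted to GAPDH loading and normalized to DMSO-only wells, gave percent degradation. Compound exposure lasted 24 h at final concentrations of 10–0.016 μM in 1:5 steps, in mouse dermal fibroblasts or human U937 cells.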

[3] = target: human MLKL (full length) (Homo sapiens (Human), UniProt Q8NB16); experiment: KINOMEscan binding assay, human MLKL (full length); conditions: hMLKL, Table 25; read-out: MLKL (KD)
Chain of human MLKL (full length) (Q8NB16 whole entry): as above
Summary of the method: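 KINOMEscan competition binding using kinase-tagged T7 phage or HEK-293-produced DNA-tagged protein captured on ligand beads, with eluted protein quantified by qPCR. Compounds were run as an 11-point 3-fold series, top 30,000 nM, in 1% DMSO. Kd was fitted with the Hill equation, slope fixed at −1.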

[4] = tested on: U937 cells; experiment: Counter screen: cell viability without the TSQ cocktail (off-target effect); set-up: species or system human; conditions: Homo sapiens, U-937, Table 26, read-out: Off-target effect (IC50 cell-based assay)
Summary of the method: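 U937 cells (20000/well, HT-RPMI + 7.4% FBS) treated with compound (10-point 1:3 dilution from 36 μM, 0.3% DMSO) without the TSQ cocktail for 48 h at 37 °C/5% CO2. Viability read as ATP by CellTiter-Glo luminescence, flagging off-target cytotoxicity.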

[5] = target: endogenous MLKL in MDF (Mus musculus (Mouse), UniProt Q9D2Y4); experiment: Degradation assay: endogenous MLKL in MDF (western blot); conditions: MDF cells, 24 h incubation with compound, MLKL adjusted for loading with GAPDH, normalized to DMSO only control, read-out: Degradation of endogenous MLKL in MDF (DC50 cell-based assay)
Chain of endogenous MLKL in MDF (Q9D2Y4 whole entry): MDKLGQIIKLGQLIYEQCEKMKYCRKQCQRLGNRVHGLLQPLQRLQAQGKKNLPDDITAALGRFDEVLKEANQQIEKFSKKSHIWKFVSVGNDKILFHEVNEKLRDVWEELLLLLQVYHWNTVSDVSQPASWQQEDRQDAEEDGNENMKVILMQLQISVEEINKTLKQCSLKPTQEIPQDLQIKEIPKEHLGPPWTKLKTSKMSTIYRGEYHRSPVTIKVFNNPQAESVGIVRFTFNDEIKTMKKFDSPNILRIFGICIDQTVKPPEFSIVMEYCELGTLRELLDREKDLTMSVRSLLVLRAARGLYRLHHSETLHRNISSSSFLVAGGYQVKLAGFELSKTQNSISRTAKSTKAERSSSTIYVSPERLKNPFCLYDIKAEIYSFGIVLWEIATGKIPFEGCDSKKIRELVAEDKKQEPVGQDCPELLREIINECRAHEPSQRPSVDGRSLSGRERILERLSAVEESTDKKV
Summary of the method: as §1

DC50 [2] | Kd [3] | DC50 [5] | Structure (SMILES) | IC50 [1] | IC50 [4]
1000 to 10000 nM | < 10 nM | – | CCS(=O)(=O)Nc1ccc(-c2n[nH]c3c(-c4cnn(CCCCCCC(=O)N[C@H](C(=O)N5C[C@H](O)C[C@H]5C(=O)NCc5ccc(-c6scnc6C)cc5)C(C)(C)C)c4)cnc(N)c23)cc1OCc1ccc(F)cc1 [Compound 1003, (2S,4R)-1-[(2S)-2-{7-[4-(4-amino-3-{4-ethanesulfonamido-3-[(4-fluorophenyl)methoxy]phenyl}-1H-pyrazolo[4,3-c]pyridin-7-yl)-1H-pyrazol-1-yl]heptanamido}-3,3-dimethylbutanoyl]-4-hydroxy-N-{[4-(4-methyl-1,3-thiazol-5-yl)phenyl]methyl}pyrrolidine-2-carboxamide] | > 10000 nM | > 10000 nM
1000 to 10000 nM | < 10 nM | – | CCS(=O)(=O)Nc1ccc(-c2n[nH]c3c(-c4cnn(CCOCCOCC(=O)N[C@H](C(=O)N5C[C@H](O)C[C@H]5C(=O)NCc5ccc(-c6scnc6C)cc5)C(C)(C)C)c4)cnc(N)c23)cc1OCc1ccc(F)cc1 [Compound 1005, (2S,4R)-1-[(2S)-2-[2-(2-{2-[4-(4-amino-3-{4-ethanesulfonamido-3-[(4-fluorophenyl)methoxy]phenyl}-1H-pyrazolo[4,3-c]pyridin-7-yl)-1H-pyrazol-1-yl]ethoxy}ethoxy)acetamido]-3,3-dimethylbutanoyl]-4-hydroxy-N-{[4-(4-methyl-1,3-thiazol-5-yl)phenyl]methyl}pyrrolidine-2-carboxamide] | 1000 to 10000 nM | > 10000 nM
1000 to 10000 nM | < 10 nM | – | Cc1ncsc1-c1ccc(CNC(=O)[C@@H]2C[C@@H](O)CN2C(=O)[C@@H](NC(=O)COCCOCCOCCn2cc(-c3cnc(N)c4c(-c5ccc(NS(=O)(=O)C(F)F)c(O[C@@H](C)c6ccc(F)cc6)c5)nn(C)c34)cn2)C(C)(C)C)cc1 [Compound 1009, (2S,4R)-1-[(2S)-2-[2-(2-{2-[2-(4-{4-amino-3-[4-(difluoromethanesulfonamido)-3-[(1S)-1-(4-fluorophenyl)ethoxy]phenyl]-1-methyl-1H-pyrazolo[4,3-c]pyridin-7-yl}-1H-pyrazol-1-yl)ethoxy]ethoxy}ethoxy)acetamido]-3,3-dimethylbutanoyl]-4-hydroxy-N-{[4-(4-methyl-1,3-thiazol-5-yl)phenyl]methyl}pyrrolidine-2-carboxamide] | < 1000 nM | 1000 to 10000 nM
1000 to 10000 nM | < 10 nM | – | Cc1ncsc1-c1ccc(CNC(=O)[C@@H]2C[C@@H](O)CN2C(=O)[C@@H](NC(=O)CCN2CC(n3cc(-c4cnc(N)c5c(-c6ccc(NS(=O)(=O)C(F)F)c(O[C@@H](C)c7ccc(F)cc7)c6)nn(C)c45)cn3)C2)C(C)(C)C)cc1 [Compound 1010, (2S,4R)-1-[(2S)-2-{3-[3-(4-{4-amino-3-[4-(difluoromethanesulfonamido)-3-[(1S)-1-(4-fluorophenyl)ethoxy]phenyl]-1-methyl-1H-pyrazolo[4,3-c]pyridin-7-yl}-1H-pyrazol-1-yl)azetidin-1-yl]propanamido}-3,3-dimethylbutanoyl]-4-hydroxy-N-{[4-(4-methyl-1,3-thiazol-5-yl)phenyl]methyl}pyrrolidine-2-carboxamide] | 1000 to 10000 nM | > 10000 nM
1000 to 10000 nM | < 10 nM | – | Cc1ncsc1-c1ccc(CNC(=O)[C@@H]2C[C@@H](O)CN2C(=O)[C@@H](NC(=O)CCN2CCC(n3cc(-c4cnc(N)c5c(-c6ccc(NS(=O)(=O)C(F)F)c(O[C@@H](C)c7ccc(F)cc7)c6)nn(C)c45)cn3)C2)C(C)(C)C)cc1 (stereo partly drawn) [Compound 1012, (2S,4R)-1-[(2S)-2-{3-[3-(4-{4-amino-3-[4-(difluoromethanesulfonamido)-3-[(1S)-1-(4-fluorophenyl)ethoxy]phenyl]-1-methyl-1H-pyrazolo[4,3-c]pyridin-7-yl}-1H-pyrazol-1-yl)pyrrolidin-1-yl]propanamido}-3,3-dimethylbutanoyl]-4-hydroxy-N-{[4-(4-methyl-1,3-thiazol-5-yl)phenyl]methyl}pyrrolidine-2-carboxamide] | 1000 to 10000 nM | > 10000 nM
1000 to 10000 nM | < 10 nM | – | Cc1ncsc1-c1ccc(CNC(=O)[C@@H]2C[C@@H](O)CN2C(=O)[C@@H](NC(=O)CCN2CCC(n3cc(-c4cnc(N)c5c(-c6ccc(NS(=O)(=O)C(F)F)c(O[C@@H](C)c7ccc(F)cc7)c6)nn(C)c45)cn3)CC2)C(C)(C)C)cc1 [Compound 1017, (2S,4R)-1-[(2S)-2-{3-[4-(4-{4-amino-3-[4-(difluoromethanesulfonamido)-3-[(1S)-1-(4-fluorophenyl)ethoxy]phenyl]-1-methyl-1H-pyrazolo[4,3-c]pyridin-7-yl}-1H-pyrazol-1-yl)piperidin-1-yl]propanamido}-3,3-dimethylbutanoyl]-4-hydroxy-N-{[4-(4-methyl-1,3-thiazol-5-yl)phenyl]methyl}pyrrolidine-2-carboxamide] | 1000 to 10000 nM | > 10000 nM
< 1000 nM | < 10 nM | < 1000 nM | Cc1ncsc1-c1ccc(CNC(=O)[C@@H]2C[C@@H](O)CN2C(=O)[C@@H](NC(=O)CCCCCCn2cc(-c3cnc(N)c4c(-c5ccc(NS(=O)(=O)C(F)F)cc5)nn(C)c34)cn2)C(C)(C)C)cc1 [Compound 1022, (2S,4R)-1-[(2S)-2-[7-(4-{4-amino-3-[4-(difluoromethanesulfonamido)phenyl]-1-methyl-1H-pyrazolo[4,3-c]pyridin-7-yl}-1H-pyrazol-1-yl)heptanamido]-3,3-dimethylbutanoyl]-4-hydroxy-N-{[4-(4-methyl-1,3-thiazol-5-yl)phenyl]methyl}pyrrolidine-2-carboxamide] | < 1000 nM | > 10000 nM
